Consider 1 molecule from patent US9605047B2, “Compositions and methods for treating hypertension” (The Brigham and Women's Hospital, Inc., priority 2012, dated 2017).

Test [1] relates to HPAECs. Description: Amplex Red assay of hydrogen peroxide levels in HPAECs. The format is cell-based, human. Particulars: aldosterone 10^−7 mol/L, 24 h, HPAECs; vs V 65.4±1.6; n=3.
Description: Human pulmonary artery endothelial cells (HPAECs) (Lonza) (male donors) were grown to confluence using phenol-free EGM-2 medium supplemented with 5% fetal bovine serum at 37° C., 5% CO2. Cells were passaged twice-weekly using 0.5% trypsin/EDTA, and experiments were performed on cells from passages 4-10. Aldosterone (Steraloids) and ET-1 (1-100 nM) (Sigma-Aldrich) were dissolved in dimethylsufloxide (10 nmol/L) and deoxygenated water, respectively, which served as vehicle controls. Cells were treated with aldosterone (10^−−10^−7 mol/L) for 24 h and in selected experiments co-incubated with the mineralocorticoid receptor inhibitor spironolactone (10 μM/l) (Sigma-Aldrich).
The subject of test [2] is NOX4 and NOX4 subunit p22^phox. Description: NOX4 and p22phox protein levels in HPAECs by Western analysis. The format is cell-based, human. To be noted: n=3. As to the method:
Cell culture and treatments. Human pulmonary artery endothelial cells (HPAECs) (Lonza) (male donors) were grown to confluence using phenol-free EGM-2 medium supplemented with 5% fetal bovine serum at 37° C., 5% CO2. Cells were passaged twice-weekly using 0.5% trypsin/EDTA, and experiments were performed on cells from passages 4-10. Aldosterone (Steraloids) and ET-1 (1-100 nM) (Sigma-Aldrich) were dissolved in dimethylsufloxide ([…]) and deoxygenated water, respectively, which served as vehicle controls. Cells were treated with aldosterone (10^−−10^−7 mol/L) for 24 h and in selected experiments co-incubated with the mineralocorticoid receptor inhibitor spironolactone (10 μM/l) (Sigma-Aldrich).
(§1) Immunoblotting. Proteins were size fractionated electrophoretically using SDS-PAGE and transferred to polyvinylidene fluoride membranes. The membranes were incubated with anti-ETA (Santa Cruz Biotechnology), anti-ETB (Santa Cruz Biotechnology), anti-NOX4 (Santa Cruz Biotechnology), anti-p22P^phox (Santa Cruz), anti-eNOS (Cell Signaling), anti-PGC-1α (Santa Cruz Biotechnology), and anti-SF (Santa Cruz Biotechnology) antibodies overnight at 4° C. and visualized using the ECL detection system (Amersham Biosciences). In experiments to assess ETA expression, purified ETA protein (Novus Biological) was loaded to serve as an internal control.

Test [3] deals with ETB-dependent NO. generation in HPAECs. Kind of test: NO. metabolites (NO2−, NO3−) in ET-1-stimulated HPAECs. The test is classed as cell-based, human. Particulars: n=3.
Description: Cell culture and treatments. Human pulmonary artery endothelial cells (HPAECs) (Lonza) (male donors) were grown to confluence using phenol-free EGM-2 medium supplemented with 5% fetal bovine serum at 37° C., 5% CO2. Cells were passaged twice-weekly using 0.5% trypsin/EDTA, and experiments were performed on cells from passages 4-10. Aldosterone (Steraloids) and ET-1 (1-100 nM) (Sigma-Aldrich) were dissolved in dimethylsufloxide (10 nmol/L) and deoxygenated water, respectively, which served as vehicle controls. Cells were treated with aldosterone (10^−−10^−7 mol/L) for 24 h and in selected experiments co-incubated with the mineralocorticoid receptor inhibitor spironolactone (10 μM/l) (Sigma-Aldrich).
NO. metabolites. Nitrite (NO2^−) and nitrate (NO3^−) were measured in cell culture medium containing 2% fetal bovine serum and L-arginine (1 mmol/l) (Sigma-Aldrich) by 1(H)-naphthotriazole fluorescence (Cayman) as previously reported.^1 To measure NO2^− levels in whole lung tissue, lung specimens were harvested from rats and snap frozen in liquid nitrogen.
Another test relates to eNOS. Kind of test: eNOS activity ([14C] arginine, NOS activity kit) in HPAECs. To be noted: ET-1 (10 nM) stimulated HPAECs, without or with aldosterone; n=3. The format is cell-based, human. The procedure: eNOS activity. eNOS activity was measured using the NOS activity kit (Cayman) according to the manufacturer's instructions with some modifications. Cells were washed with PBS containing 1 mM EDTA, transferred to a microcentrifuge tube, and centrifuged at 14,000×g at 4° C. for 2 min. The supernatant was decanted and homogenization buffer (250 mM Tris-HCl, pH 7.4, 6 μM BH4, 2 μM flavin adenine dinucleotide, and 2 μM flavin adenine mononucleotide) was added to the cell pellets. […] The samples were then centrifuged at 14,000×g for 30 seconds and radioactivity of the eluant was quantified in a liquid scintillation counter (Beckman-Coulter).

In test [4] the test system is HPAECs. Kind of test: 3-Nitrotyrosine immunohistochemistry in HPAECs. The test is classed as cell-based, human. Particulars: V 24.1±3.3, n=5. The procedure: 3-Nitrotyrosine immunohistochemistry. Cells grown to confluence on glass chamber slides were fixed following treatments and anti-3-nitrotyrosine immunohistochemistry (Santa Cruz Biotechnology) was performed using the 3,3′-diaminobenzidine substrate method (Vector laboratories) as described previously.^1

A further test relates to ETA, ETB, eNOS. Description: ETA, ETB and eNOS protein levels in HPAECs by Western analysis. The test is classed as cell-based, human. As to the method: as §1, with “anti-[…]^phox” for “anti-p22P^phox”
Test [5] concerns the target T1, ETB cysteinyl thiols (region containing Cys405) (Homo sapiens, UniProt P24530).
T1 construct: endogenous in cells; host or cells: HPAECs (Lonza)
T1 sequence (P24530 27-442): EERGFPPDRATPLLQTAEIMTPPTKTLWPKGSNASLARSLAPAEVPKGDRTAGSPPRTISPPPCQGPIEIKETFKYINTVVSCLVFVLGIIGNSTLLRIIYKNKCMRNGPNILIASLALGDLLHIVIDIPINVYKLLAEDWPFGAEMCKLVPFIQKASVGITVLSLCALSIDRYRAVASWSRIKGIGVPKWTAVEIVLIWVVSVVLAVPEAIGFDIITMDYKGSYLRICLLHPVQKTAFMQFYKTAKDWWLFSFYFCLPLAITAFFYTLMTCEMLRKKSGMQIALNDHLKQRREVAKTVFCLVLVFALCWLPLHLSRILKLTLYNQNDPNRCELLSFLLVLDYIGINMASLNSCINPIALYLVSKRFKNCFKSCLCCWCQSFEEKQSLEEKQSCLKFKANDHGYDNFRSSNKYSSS
Description: Western analysis to detect ETB disulfide bond formation in HPAECs. The test is classed as cell-based. To be noted: aldosterone 10^−7 mol/L 24 h or H2O2 200 μmol/L 20 min. The procedure: Western analysis to detect ETB disfulfide bond formation. Western analysis to detect ETB disulfide bond formation was performed as described previously.^7 Briefly, protein extracts from cells were lysed in alkylating buffer containing 0.1 M Tris-HCL, pH 6.8, 1% SDS, 100 mM iodoacetamide, and 100 mM N-ethylmaleimide, and sonicated on ice for 5 min followed by a 30-min incubation at 25° C. Alkylated proteins were then precipitated with acetone. Proteins were resuspended in 50 μl of 0.1 M Tris-HCl, pH 7.4, 1% SDS; and disulfides were reduced with 5 mM tris(2-carboxyethyl)phosphine hydrochloride (TCEP). Following a 20-min incubation at 25° C., TCEP was removed with a Micro Bio-Spin™ column 6 (Bio-Rad), and 1% SDS was added to the eluant. The cysteines previously participating in a disulfide bond, now reduced, were labeled with 1 mM polyethylene glycol-conjugated maleimide (molecular mass 10 kDa) (Fluka). After a 1-h incubation at 25° C., proteins were precipitated with acetone, resuspended in 50 μl of non-reducing SDS electrophoresis buffer, and boiled for 10 min. Protein samples were then size-fractionated electrophoretically using SDS-PAGE, and transferred to a polyvinylidene fluoride membrane. […]

The test system of test [6] is ETB region containing Cys405. Kind of test: ETB sulfenic acid (R-SOH) by immunoprecipitation and immunoblot in HPAECs. To be noted: aldosterone 10^−7 mol/L, 24 h, vs V, n=3. The format is cell-based, human. As to the method: Co-immunoprecipitation of proteins. Cell monolayers were washed twice with ice-cold PBS and incubated on ice with RIPA buffer supplemented with various protease inhibitors (Millpore). Cells were scraped with a rubber policeman and samples were rotated at 4° C. for 15 min. Lysates were centrifuged at 14,000×g at 4° C. for 15 min and the then pre-cleared with a 50% slurry of Protein G agarose beads (Santa Cruz Biotechnology) mixed with PBS. Following removal of the beads by centrifugation, cell lysates were incubated with an anti-ETB or anti-PGC-1α antibody (Santa Cruz Biotechnology) overnight at 4° C. The immunocomplex was captured by incubating lysates with 50% Protein G agarose bead slurry at 4° C. for 1 h. Beads were collected by pulse centrifugation, resuspended in non-reducing sample buffer, and then boiled for 10 min to dissociate the immunocomplex from the beads. Western analysis was performed with an anti-SF (Santa Cruz) or anti-sulfenic acid (R—SOH) antibody (Millpore) as described above.
On the technique in general: Immunoblotting shows a protein as a band on a membrane.

Where [7] appears, read: aldosterone 10^−7 mol/L, 24 h, HPAECs.

Molecule `C[C@]12CCC(=O)C=C1CC[C@@H]1[C@@H]2[C@@H](O)C[C@]2(C=O)[C@@H](C(=O)CO)CC[C@@H]12` [aldosterone] came in with an H2O2 accumulation in the test on HPAECs [1] of 100.6±3.5 μM/mg protein. In addition, the “protein levels of NOX4” value in test [2] (aldosterone 10^−7 mol/L) stood at 157.0±4.4 % control; in test [2] (aldosterone 10^−8 mol/L), 146.3±12.4 % control; in test [2] (aldosterone 10^−9 mol/L), 134.6±16.5 % control. Also, the “protein levels of p22^phox” value in test [2] (aldosterone 10^−7 mol/L) came out at 829.5±295.6 % control; in test [2] (aldosterone 10^−8 mol/L), 961±226.2 % control; in test [2] (aldosterone 10^−9 mol/L), 1009.4±167.0 % control. In addition, in test [3] (ET-1 (10 nM) stimulated HPAECs, without or with aldosterone), the “total NO. metabolite (NOx: NO2^−+NO3^−) formation” value worked out at 103.4±12.2 μM/μg protein. Further, in test [3] (aldosterone 10^−7 mol/L, 24 h, then ET-1 10 nM, HPAECs), the “decrease in ETB-mediated NO2^− levels” value amounted to 60.3%. For the same molecule, the “decrease in NO2^−/NO3^− ratio” value in test [3] (aldosterone in ET-1-stimulated HPAECs) was determined as 62%. The eNOS activity with eNOS was 7.6±2.4 [^14C] L-citrulline c.p.m./μg protein. In addition, in the test on HPAECs [4], the “levels of 3-nitrotyrosine” value turned out to be 46.8±6.6 arb. units. For the same molecule, in the test with ETA, ETB, eNOS (setting [7]), the “expression of ETA” value was “Without influencing protein expression of ETB, or inducing”. Further, the “protein expression of ETB” value in the test with ETA, ETB, eNOS (setting [7]) was “Without influencing”. Also, the eNOS protein levels entry in the test on ETA, ETB, eNOS (aldosterone-treated HPAECs) is on record as “Without influencing”. Moreover, in test [5], the “ETB disulfide bond formation (bands at 70 kDa and 90 kDa)” value is on record as “de novo formation of one or two disulfide bonds”. Moreover, the “increase in ETB-SOH protein expression levels” value in test [6] was determined as 639%.
